Assay results published in PMC7307922 (Journal of Medicinal Chemistry, 2020).
pEC50: −log10 of the molar value. Counter-ions that a name gives are not always drawn.

Legend:
hFFA3 [1] = target: T1, hFFA3 (Homo sapiens, UniProt O14843); test: biochemical; conditions: for GTPγS pEC50: hFFA3, mean of ≥3 independent experiments ± standard error; for Emax: read-out: GTPγS Emax
T1 sequence (O14843 1-346): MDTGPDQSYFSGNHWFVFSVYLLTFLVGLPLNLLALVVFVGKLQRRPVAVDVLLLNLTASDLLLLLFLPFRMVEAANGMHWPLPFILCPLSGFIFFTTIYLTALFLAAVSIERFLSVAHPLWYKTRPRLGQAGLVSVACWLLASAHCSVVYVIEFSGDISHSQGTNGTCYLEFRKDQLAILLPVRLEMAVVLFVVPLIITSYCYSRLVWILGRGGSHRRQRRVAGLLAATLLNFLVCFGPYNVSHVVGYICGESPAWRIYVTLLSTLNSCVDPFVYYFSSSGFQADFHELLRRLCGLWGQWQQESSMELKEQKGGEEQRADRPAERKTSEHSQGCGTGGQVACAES
Description: (§1) The ligands were initially screened in a human FFA3-dependent [^35S]GTPγS binding assay as this assay reflects receptor-mediated activation of Gi/o proteins and is known to generally correlate well with ligand affinity.[30] Analogues of particular interest were tested further in a cAMP inhibition assay as this is an important downstream effect of Gi-activation. […] It is furthermore performed in whole cells, is more downstream, includes G protein signal amplification, and therefore better reflects a more natural ligand–receptor response.
Membranes were isolated from Flp-In T-REx HEK293 cells treated with 100 ng/mL doxycycline to induce receptor expression. Cells were washed with ice-cold phosphate-buffered saline and removed from dishes by scraping before being centrifuged for 5 min at 4 °C, 3000 rpm. Pellets were resuspended in TE buffer (75 mM Tris–HCl, 5 mM EDTA; pH 7.5) with the addition of a protease inhibitor mixture (Roche Applied Science, West Sussex, UK). This was then homogenized with a 5 mL hand-held homogenizer and subsequently centrifuged at 1500 rpm for 5 min at 4 °C, from which the supernatant was collected and further centrifuged at 50 000 rpm for 30 min at 4 °C. The resulting pellet was resuspended in TE buffer, and the protein content was measured using a BCA protein assay kit (Pierce, Fisher Scientific, Loughborough, UK).
Reactions were initiated with the addition of [^35S]GTPγS at 50 nCi per tube; reactions were terminated after 1 h of incubation at 25 °C by rapid filtration through GF/C glass filters using a 24-well Brandel cell harvester (Alpha Biotech, Glasgow, UK). Unbound radioligand was removed from filters by washing three times with ice-cold wash buffer (50 mM Tris–HCl, pH 7.4, and 10 mM MgCl2), and [^35S]GTPγS binding was determined by liquid scintillation spectrometry.

hFFA3 [2] = target: T1, hFFA3; test: cell-based; conditions: for Emax: HEK293, read-out: cAMP Emax; for increased potency in cAMP assay versus GTPγS assay / lower potency in cAMP assay versus GTPγS assay: cAMP vs GTPγS data; for cAMP pEC50: hFFA3, compound alone, mean of ≥3 independent experiments ± standard error; for PAM pEC50: cAMP assay in the presence of 1 μM propionate
Description: as §1
HEK293 Flp-In T-Rex cells stably transfected with FFA3-eYFP receptors were incubated overnight with doxycycline to induce expression, then harvested, and cryopreserved. On the day of each experiment, cells were thawed and resuspended in stimulation buffer. Assays were carried out using a 384-well plate format with 3000 cells/well using the CisBio cAMP GS dynamic kit as per manufacturer’s protocol. Compounds were tested for the ability to inhibit 0.3 μM forskolin-induced cAMP production after co-incubation for 1 h. Reactions were measured using a PHERAstar FS plate reader (BMGLabtech, Aylesbury, UK).

Structure (SMILES)	GTPγS pEC50 (hFFA3 [1])	Emax (hFFA3 [1])	Emax (hFFA3 [2])	increased potency in cAMP assay versus GTPγS assay (hFFA3 [2])	cAMP pEC50 (hFFA3 [2])	PAM pEC50 (hFFA3 [2])	drop in potency on replacement of o-tolyl (1) (hFFA3 [1]; relative to 1)	lower potency in cAMP assay versus GTPγS assay (hFFA3 [2])	pEC50 (hFFA3 [2])	allosteric effect on propionate response (hFFA3 [2]; cAMP assay together with propionate (56: 30 μM compound; 62, 63: 1 μM propionate))
CC1=C(C(=O)Nc2ccccc2C)C(c2ccoc2)C2=C(CCCC2=O)N1 (stereo not shown) [Compound 2, reference compound]	5.24 ± 0.08	135%	97%	10 fold	6.27 ± 0.03					
CC1=C(C(=O)Nc2ccccc2C)C(c2ccccc2)C2=C(CCCC2=O)N1 (stereo not shown) [Compound 3, 2-Methyl-5-oxo-4-phenyl-N-(o-tolyl)-1,4,5,6,7,8-hexahydroquinoline-3-carboxamide]	4.75 ± 0.11	103%	98%	14 fold	5.91 ± 0.04					
CC1=C(C(=O)Nc2ccccc2C)C(c2cccs2)C2=C(CCCC2=O)N1 (stereo not shown) [Compound 4, 2-Methyl-5-oxo-4-(thiophen-2-yl)-N-(o-tolyl)-1,4,5,6,7,8-hexahydroquinoline-3-carboxamide]	5.52 ± 0.18	111%	102%		5.79 ± 0.04	5.92 ± 0.04				
CC1=C(C(=O)Nc2ccccc2C)C(c2cccc(Br)c2)C2=C(CCCC2=O)N1 (stereo not shown) [Compound 6, 4-(3-Bromophenyl)-2-methyl-5-oxo-N-(o-tolyl)-1,4,5,6,7,8-hexahydroquinoline-3-carboxamide]	5.49 ± 0.08	89%	99%		5.87 ± 0.06					
CC1=C(C(=O)Nc2ccccc2C)C(c2ccc(Br)cc2)C2=C(CCCC2=O)N1 (stereo not shown) [Compound 7, 4-(4-Bromophenyl)-2-methyl-5-oxo-N-(o-tolyl)-1,4,5,6,7,8-hexahydroquinoline-3-carboxamide]	5.43 ± 0.09	85%	103%		5.79 ± 0.03					
CC1=C(C(=O)Nc2ccccc2C)C(c2cccc(C(F)(F)F)c2)C2=C(CCCC2=O)N1 (stereo not shown) [Compound 8, 2-Methyl-5-oxo-N-(o-tolyl)-4-(3-(trifluoromethyl)phenyl)-1,4,5,6,7,8-hexahydroquinoline-3-carboxamide]	4.81 ± 0.13	118%	98%		5.55 ± 0.05					
CC1=C(C(=O)Nc2ccccc2C)C(c2ccc(C(F)(F)F)cc2)C2=C(CCCC2=O)N1 (stereo not shown) [Compound 9, 2-Methyl-5-oxo-N-(o-tolyl)-4-(4-(trifluoromethyl)phenyl)-1,4,5,6,7,8-hexahydroquinoline-3-carboxamide]	5.12 ± 0.13	116%	101%		5.31 ± 0.06					
CC1=C(C(=O)Nc2ccccc2C)C(c2ccc(C)cc2)C2=C(CCCC2=O)N1 (stereo not shown) [Compound 10, 2-Methyl-5-oxo-N-(o-tolyl)-4-(p-tolyl)-1,4,5,6,7,8-hexahydroquinoline-3-carboxamide]	4.52 ± 0.11	88%	97%		5.44 ± 0.04					
CCc1ccc(C2C(C(=O)Nc3ccccc3C)=C(C)NC3=C2C(=O)CCC3)cc1 (stereo not shown) [Compound 11, 4-(4-Ethylphenyl)-2-methyl-5-oxo-N-(o-tolyl)-1,4,5,6,7,8-hexahydroquinoline-3-carboxamide]	4.08 ± 0.26	143%	96%		5.17 ± 0.08					
CC1=C(C(=O)Nc2ccccc2)C(c2ccco2)C2=C(CCCC2=O)N1 (stereo not shown) [Compound 12]	5.11 ± 0.12	81%	97%		5.45 ± 0.03		> 3 fold			
CC1=C(C(=O)Nc2cccc(C)c2)C(c2ccco2)C2=C(CCCC2=O)N1 (stereo not shown) [Compound 13, 4-(Furan-2-yl)-2-methyl-5-oxo-N-(m-tolyl)-1,4,5,6,7,8-hexahydroquinoline-3-carboxamide]	5.34 ± 0.15	78%	100%		5.80 ± 0.04					
CC1=C(C(=O)Nc2ccc(C)cc2)C(c2ccco2)C2=C(CCCC2=O)N1 (stereo not shown) [Compound 14, 4-(Furan-2-yl)-2-methyl-5-oxo-N-(p-tolyl)-1,4,5,6,7,8-hexahydroquinoline-3-carboxamide]	5.27 ± 0.12	88%	100%		6.16 ± 0.03					
COc1ccccc1NC(=O)C1=C(C)NC2=C(C(=O)CCC2)C1c1ccco1 (stereo not shown) [Compound 15, 4-(Furan-2-yl)-N-(2-methoxyphenyl)-2-methyl-5-oxo-1,4,5,6,7,8-hexahydroquinoline-3-carboxamide]	4.71 ± 0.28	124%	99%	50 fold	6.43 ± 0.03					
CC1=C(C(=O)Nc2ccccc2C)C(CC(C)C)C2=C(CCCC2=O)N1 (stereo not shown) [Compound 17, 4-Isobutyl-2-methyl-5-oxo-N-(o-tolyl)-1,4,5,6,7,8-hexahydroquinoline-3-carboxamide]	5.68 ± 0.13	109%	109%		5.00 ± 0.06	6.28 ± 0.14		5 fold		
CC1=C(C(=O)Nc2cccc(C)c2C)C(CC(C)C)C2=C(CCCC2=O)N1 (stereo not shown) [Compound 18, N-(2,3-Dimethylphenyl)-4-isobutyl-2-methyl-5-oxo-1,4,5,6,7,8-hexahydroquinoline-3-carboxamide]	5.26 ± 0.16	88%	97%		4.98 ± 0.11			2 fold		
CC1=C(C(=O)Nc2ccccc2I)C(CC(C)C)C2=C(CCCC2=O)N1 (stereo not shown) [Compound 19, N-(2-Iodophenyl)-4-isobutyl-2-methyl-5-oxo-1,4,5,6,7,8-hexahydroquinoline-3-carboxamide]	5.41 ± 0.15	129%	89%						5.57	
CC1=C(C(=O)Nc2ccccc2Cl)C(CC(C)C)C2=C(CCCC2=O)N1 (stereo not shown) [Compound 20, N-(2-Chlorophenyl)-4-isobutyl-2-methyl-5-oxo-1,4,5,6,7,8-hexahydroquinoline-3-carboxamide]	5.41 ± 0.13	105%	94%		6.15 ± 0.06					
CC1=C(C(=O)Nc2cc(Cl)ccc2Cl)C(CN)C2=C(CCCC2=O)N1 (stereo not shown) [Compound 52, 4-(Aminomethyl)-N-(2,5-dichlorophenyl)-2-methyl-5-oxo-1,4,5,6,7,8-hexahydroquinoline-3-carboxamide Hydrochloride]					nr^d					
CC1=C(C(=O)Nc2cc(Cl)ccc2Cl)C(CC2CCNCC2)C2=C(CCCC2=O)N1 (stereo not shown) [Compound 53, N-(2,5-Dichlorophenyl)-2-methyl-5-oxo-4-(piperidin-4-ylmethyl)-1,4,5,6,7,8-hexahydroquinoline-3-carboxamide Hydrochloride]					nr^d					
CCN(CC)CCOCC1C(C(=O)Nc2cc(Cl)ccc2Cl)=C(C)NC2=C1C(=O)CCC2 (stereo not shown) [Compound 54, N-(2,5-Dichlorophenyl)-4-((2-(diethylamino)ethoxy)methyl)-2-methyl-5-oxo-1,4,5,6,7,8-hexahydroquinoline-3-carboxamide]					nr^d					
CC1=C(C(=O)Nc2cc(Cl)ccc2Cl)C(CNC(=O)OC(C)(C)C)C2=C(CCCC2=O)N1 (stereo not shown) [Compound 55, tert-Butyl((3-((2,5-dichlorophenyl)carbamoyl)-2-methyl-5-oxo-1,4,5,6,7,8-hexahydroquinolin-4-yl)methyl)carbamate]					nr^d					
CC1=C(C(=O)Nc2cc(Cl)ccc2Cl)C(CC2CCN(C(=O)OC(C)(C)C)CC2)C2=C(CCCC2=O)N1 (stereo not shown) [Compound 56, tert-Butyl 4-((3-((2,5-dichlorophenyl)carbamoyl)-2-methyl-5-oxo-1,4,5,6,7,8-hexahydroquinolin-4-yl)methyl)piperidine-1-carboxylate]					nr^d					NAM
